Columns and labels:
renal hypertensive rats [1] = assay: Antihypertensive activity in renal hypertensive rats, i.m. (Table 3); type: in vivo, rat; settings: 30 mg/kg/day i.m.
Method: (§1) An aqueous solution or suspension in peanut oil of each test compound as administered intramuscularly (i.m.) or orally (p.o.) at a dose of 30 to 100 mg/kg (body weight)/day once every morning over the period of 6 to 7 days.
(§2) The blood pressure of each rat was measured daily before and 5 hours after each administration. Furthermore, the blood pressure was measured every morning after drug withdrawal over a period of 3 to 6 days.
(§3) Test compounds (1)-(4) decreased the blood pressure of renal hypertensive rats with a dose of 30 mg/kg/day i.m.. […] The antihypertensive rats with a dose of 100 mg/kg/day p.o..

plasma cholesterol level = assay: Cholesterol-lowering activity in rats (modified Greenberg method); type: in vivo, rat; settings: 100 mg/Kg oral once a day, 5 consecutive days
Method: The effect of each of the test compounds on the plasma cholesterol level was examined in rats according to a slightly modified form of the C. M. Greenberg et al. method described in Am. J. Physiol., Vol. 202 (1961), p. 732. Rats were treated once a day with a 100 mg/Kg oral dose for 5 consecutive days instead of 7 days.

High renin plasma = target: T1, High renin plasma (Canis lupus familiaris, UniProt Q6DYE7); assay: Renin-inhibitory activity, Method II (high renin plasma of dog, inhibition of Angiotensin I formation); type: biochemical; settings: Table 2; 37°C, 4 hours, 1.25 mg/ml; read-out: Rate of inhibiting the formation of Angiotensin I determined by Method II
T1 construct: High renin plasma prepared by constriction of the renal artery of a dog anesthetized with Nembutal; from tissue; host or cells: plasma of a dog with constricted renal artery
T1 sequence (Q6DYE7 66-403): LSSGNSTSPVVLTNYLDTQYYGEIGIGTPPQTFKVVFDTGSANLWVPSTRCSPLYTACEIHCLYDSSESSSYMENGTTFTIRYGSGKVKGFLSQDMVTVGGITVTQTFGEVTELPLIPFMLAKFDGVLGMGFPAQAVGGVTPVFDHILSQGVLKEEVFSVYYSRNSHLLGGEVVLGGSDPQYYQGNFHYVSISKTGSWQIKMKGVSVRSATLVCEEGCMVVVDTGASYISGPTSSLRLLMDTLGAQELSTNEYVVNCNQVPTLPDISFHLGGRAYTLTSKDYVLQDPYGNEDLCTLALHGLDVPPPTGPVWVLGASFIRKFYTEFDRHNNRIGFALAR
Method: High renin plasma prepared by constriction of the renal artery of a dog anesthetized with Nembutal (the plasma which when incubated at 37°40 C. for 6 hours, yields 30 to […]. of Angiotensin I) was incubated at 37° C. for 2 to 6 hours in the same way as in Method I, and also under the same conditions in the presence of 1.25 mg/ml. of each of the test compounds.
(§4) The results are shown in Table 1 (the rate of inhibiting the formation of Angiotensin I, as determined by Method I, when the plasma was incubated at 37° C. for 2, 4 and 6 hours respectively), and Table 2 (the rate of inhibiting the formation of Angiotensin I when the plasma was incubated at 37° C. for 4 hours, with the compound concentration of 1.25 mg/ml.)

Renin = target: T2, Renin (Homo sapiens, UniProt P00797); assay: Renin-inhibitory activity, Method I (inhibition of Angiotensin I formation, RIA); type: biochemical; settings: Table 2; 37°C, 4 hours, 1.25 mg/ml; read-out: Rate of inhibiting the formation of Angiotensin I determined by Method I
T2 sequence (P00797 67-406): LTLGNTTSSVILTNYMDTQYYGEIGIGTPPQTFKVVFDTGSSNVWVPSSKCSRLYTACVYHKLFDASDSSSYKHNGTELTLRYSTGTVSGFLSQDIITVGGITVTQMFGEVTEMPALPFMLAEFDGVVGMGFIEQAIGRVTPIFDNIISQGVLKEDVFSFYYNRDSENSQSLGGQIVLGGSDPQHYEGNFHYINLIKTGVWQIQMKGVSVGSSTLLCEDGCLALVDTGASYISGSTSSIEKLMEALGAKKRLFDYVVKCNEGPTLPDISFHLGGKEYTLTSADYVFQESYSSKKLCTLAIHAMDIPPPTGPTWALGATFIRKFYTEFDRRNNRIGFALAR
Method: Renin (see E. Haas et al. Circulation Research, Vol. 19, p. 739, 1966 and Vol. 31, p. 65, 1972) was incubated in Angiotensinogen at 37° C. for 2 to 6 hours. Similarly, renin was incubated under the same conditions in the presence of 0.313 to 2.5 mg/ml. of each of the test compounds listed above. The amount of Angiotensin I was measured by radioimmunoassay (RIA) (E. Haber et al., J. Clin. Endocrinol., Vol. 29, p. 1349, 1969), and made the renin activity.
as §4

renal hypertensive rats [2] = assay: Antihypertensive activity in rats, p.o. (Table 4); type: in vivo, rat; settings: 100 mg/kg/day p.o.
Method: as §1, §2, §3

[3] = 1st day, 0 h (immediately before administration)
[4] = 1st day, 5 hours after administration
[5] = 2nd day, 0 h (immediately before administration)
[6] = 2nd day, 5 hours after administration
[7] = 3rd day, 0 h (immediately before administration)
[8] = 3rd day, 5 hours after administration
[9] = 4th day, 0 h (immediately before administration)
[10] = 4th day, 5 hours after administration
[11] = 5th day, 0 h (immediately before administration)
[12] = 5th day, 5 hours after administration
[13] = 6th day, 0 h (immediately before administration)
[14] = 6th day, 5 hours after administration

Row | Compound | Changes of blood pressure after drug withdrawal (renal hypertensive rats [1]; 1st day after withdrawal) [mmHg] | Changes of blood pressure (renal hypertensive rats [1]; [3]) [mmHg] | Changes of blood pressure (renal hypertensive rats [1]; [4]) [mmHg] | Changes of blood pressure after drug withdrawal (renal hypertensive rats [1]; 2nd day after withdrawal) [mmHg] | Changes of blood pressure (renal hypertensive rats [1]; [6]) [mmHg] | Changes of blood pressure after drug withdrawal (renal hypertensive rats [1]; 3rd day after withdrawal) [mmHg] | Changes of blood pressure (renal hypertensive rats [1]; [7]) [mmHg] | Changes of blood pressure (renal hypertensive rats [1]; [8]) [mmHg] | Changes of blood pressure (renal hypertensive rats [1]; [9]) [mmHg] | Changes of blood pressure (renal hypertensive rats [1]; [10]) [mmHg] | Changes of blood pressure (renal hypertensive rats [1]; [11]) [mmHg] | Changes of blood pressure (renal hypertensive rats [1]; [12]) [mmHg] | Changes of blood pressure (renal hypertensive rats [1]; [13]) [mmHg] | Changes of blood pressure (renal hypertensive rats [1]; [14]) [mmHg] | Cholesterol-lowering activity (plasma cholesterol level) [%] | inhibition at 1250 µg/mL (High renin plasma) [%] | inhibition at 1250 µg/mL (Renin) [%] | other results
1 | CCC=CCC=CCC=CCCCCCCCC(=O)OCC(COP(=O)(O)OCCN)OC(=O)CCCCCCCCCCCCCCCCC (racemic) [(b), rac-2-Octadecanoyl-3-(octadeca-9,12,15-trienoyl)glycero-1-phosphoryl ethanolamine, reference compound] | -11 | 0 | -32 | -2 | -25 | -1 | -8 | -34 | -7 | -39 | -8 | -44 | -10 | -47 | 0 | 25 | < 10 | Changes of blood pressure (renal hypertensive rats [1]; [5]): -4 mmHg
2 | CCCCCC=CCC=CCC=CCC=CCCCC(=O)OCC(COP(=O)(O)OCCN)OC(=O)CCCCCCCCCCCCCCCCC (racemic) [(a), rac-2-Octadecanoyl-3-(eicosa-5,8,11,14-tetraenoyl)glycero-1-phosphoryl ethanolamine, reference compound] | -14 | 0 | -26 | -3 | -35 | -1 | -5 | -29 | -5 | -34 | -13 | -33 | -13 | -43 | 0 | 25 | < 10 | antihypertensive effect, oral administration (in words) (renal hypertensive rats [2]): did not show such an effect; Changes of blood pressure (renal hypertensive rats [2]; [3]): 0 mmHg; Changes of blood pressure (renal hypertensive rats [2]; [4]): +2 mmHg; Changes of blood pressure (renal hypertensive rats [2]; [5]): +1 mmHg; Changes of blood pressure (renal hypertensive rats [2]; [6]): +5 mmHg; Changes of blood pressure (renal hypertensive rats [2]; [7]): +2 mmHg; Changes of blood pressure (renal hypertensive rats [2]; [8]): -2 mmHg; Changes of blood pressure (renal hypertensive rats [2]; [9]): +1 mmHg; Changes of blood pressure (renal hypertensive rats [2]; [11]): +2 mmHg; Changes of blood pressure (renal hypertensive rats [2]; [12]): +2 mmHg; Changes of blood pressure (renal hypertensive rats [2]; [13]): +1 mmHg; Changes of blood pressure (renal hypertensive rats [2]; 7th day, 0 h (immediately before administration)): +1 mmHg; Changes of blood pressure (renal hypertensive rats [2]; 7th day, 5 hours after administration): +2 mmHg

Reference: patent US3985875A, “ω-(N-acylamino)alkylphosphoryl ethanolamines, pharmaceutical compositions containing them, and their uses” (Dainippon Pharmaceutical Co., Ltd., priority 1974, dated 1976)
